Assay results taken from article PMC6934184, “Selective DNA-PKcs inhibition extends the therapeutic index of localized radiotherapy and chemotherapy” (The Journal of Clinical Investigation, 2019).

Target: T1, CDK2/cyclin O (Homo sapiens, UniProt P24941)
T1 construct: purchased Thermo Fisher Scientific (Life Technologies) SelectScreen
Assay: SelectScreen LanthaScreen
Format: binding
Settings: 1 µM
Method in brief: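 SelectScreen broad panel; activity (Z'LYTE, Adapta) plus binding formats. ATP: Km app for CSF1R Z'LYTE; 10 for CAMK1 Adapta. Readout = % per kinase.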

For `CN(C(=O)CN1CCOCC1)c1ccc2sc3c(-c4cccc5c(=O)cc(N6CC7CCC(C6)O7)oc45)cccc3c2c1` [NU5455], the “% displacement” value was 0.9%.
